Source: patent US11970600B2, “Di-cumyl peroxide crosslinking of UHMWPE” (priority 2021, dated 2024)
Like-named read-outs stand apart in the source and are kept apart here.

Key:
[1] = design: species or system humans; settings: for ALfemale (allowable limit): adult females, 58 kg body weight; for ALmale (allowable limit): adult males, 70 kg body weight
Protocol: Toxicological risk assessment of five previously characterized byproducts, per Sayoun, J; Crepet A; Gouanve F; Keromnes L; Espuche E. 2017. “Diffusion mechanism of byproducts resulting from the peroxide crosslinking of polyethylene.” J. Appl. Polym. Sci. 44525. doi: 10.1002/APP.44525, was carried out following ISO 10993-17:2002. Quantification was based on the maximum amount of chemical exposures from the anticipated maximum number of implants a patient may receive (in this case, 4 implants). An exhaustive literature search for toxicity data was conducted specific to each chemical of interest. This was accomplished via ToxPlanet (a federated search engine that extracts the content from 500+ websites). Biocompatibility endpoints were determined based on ISO 10993-1:2018 and recent United States Food and Drug Administration (US Food and Drug Administration 2016a. “Use of International Standard ISO-10993, ‘Biological evaluation of medical devices—Part 1: Evaluation and testing within a risk management process’: Guidance for Industry and Food and Drug Administration Staff.” Center for Devices and Radiological Health (CDRH), 68p). These endpoints include chronic toxicity, reproductive and developmental toxicity, genotoxicity, carcinogenicity, and sensitization.
The in silico methods utilized an expert-rule-based program (Toxtree version 3.1.0; Ideaconsult Ltd., 2018) and the statistics-based program VEGA version 1.2.8 and Benfenati, E; Manganaro, A; Gini, G. 2013. “VEGA-QSAR: AI inside a platform for predictive toxicology.” In CEUR Workshop Proceedings, Volume 1107: Proceedings of The Second Workshop on Popularize Artificial Intelligence, (PAI 2013), Turin, Italy), consistent with the International Council for Harmonisation of Technical Requirements for Pharmaceuticals for Human Use (ICH) and US FDA guidelines for the assessment of DNA reactive impurities in pharmaceuticals (M7 guidelines; International Council for Harmonisation of Technical Requirements for Pharmaceuticals for Human Use (ICH). 2017a. “ICH Harmonised Guideline: Assessment and Control of DNA Reactive (Mutagenic) Impurities in Pharmaceuticals to Limit Potential Carcinogenic Risk M7(R1) (Current Step 4 Version); US Food and Drug Administration (US FDA 2018. “Guidance for Industry: M7(R1) Assessment and Control of DNA Reactive (Mutagenic) Impurities in Pharmaceuticals to Limit Potential Carcinogenic Risk.” Center for Drug Evaluation and Research (CDER), Center for Biologics Evaluation and Research (CBER)).
The allowable limit (AL) was calculated using the no-observed-adverse-effect level (NOAEL) limits ascertained from the literature search and in silico methods described above. The NOAELs were then adjusted by the average body weight (BW) for adult males (70 kg) and adult females (58 kg). Following the recommendations of ISO 10993-17 and ICH Q3C(R7) (International Organization for Standardization (ISO). 2002. “ISO 10993-17: Biological Evaluation of Medical Devices—Part 17: Establishment of Allowable Limits for Leachable Substances.” ISO 10993-17: 2002; International Council for Harmonisation of Technical Requirements for Pharmaceuticals for Human Use (ICH). 2018. “ICH Harmonised Guideline: Impurities: Guideline for Residual Solvents Q3C(R7) (Current Step 4 Version).”), the values were then adjusted by a series of uncertainty factors (UFs). UF1=10 to account for interindividual variation; UF2=5 for extrapolation of effects from rats to humans; UF3=10 to account for extrapolation from an oral exposure study to systemic exposure risk associated with an implanted device; UF4=5 to account for extrapolation of results from a 90-day toxicity study in rodents to lifetime exposure associated with a permanent implant; and UF5=10 to account for extrapolation of a lowest-observed-adverse-effect level (LOAEL) to a NOAEL, if needed.

[2] = cited from earlier work

SMILES	ALfemale (allowable limit) [1]	ALmale (allowable limit) [1]	half-life temperature ([2]; for 1 minute) [°C]	half-life temperature ([2]; for 1 hour) [°C]	half-life temperature ([2]; for 10 hours) [°C]
C=C(CC(C)(C)c1ccccc1)c1ccccc1 [2,4-Diphenyl-4-methyl-1-pentene]	232 µg/day	280 µg/day			
CC(=O)c1ccccc1 [Acetophenone]	9,810 μg/day	11,800 μg/day			
CC(C)(O)c1ccccc1 [Cumyl alcohol]	1,800 μg/day	1,800 μg/day			
CC(C)(OOC(C)(C)c1ccccc1)c1ccccc1 [Dicumyl peroxide]	1,860 μg/day	2,240 μg/day	120	80	61
